Measured values reported in article PMC6392429 (ACS infectious diseases, 2018).
“And” between values parts separate entries of the source, which are not always exact repeats. Identical values can stand only once. Like-named read-outs stand apart in the source and are kept apart here.

Assays:
AmpC β-lactamase = AmpC β-lactamase (Escherichia coli, UniProt P00811)
DENV2 NGC [1] = test: Plaque reduction assay, DENV2; format: cell-based, dengue virus serotype 2; conditions: read-out: PRNT50 DENV2
[2] = target: T1, malate dehydrogenase (MDH) (Sus scrofa, UniProt P00346); test: Malate dehydrogenase; format: biochemical
T1 sequence (P00346 25-338): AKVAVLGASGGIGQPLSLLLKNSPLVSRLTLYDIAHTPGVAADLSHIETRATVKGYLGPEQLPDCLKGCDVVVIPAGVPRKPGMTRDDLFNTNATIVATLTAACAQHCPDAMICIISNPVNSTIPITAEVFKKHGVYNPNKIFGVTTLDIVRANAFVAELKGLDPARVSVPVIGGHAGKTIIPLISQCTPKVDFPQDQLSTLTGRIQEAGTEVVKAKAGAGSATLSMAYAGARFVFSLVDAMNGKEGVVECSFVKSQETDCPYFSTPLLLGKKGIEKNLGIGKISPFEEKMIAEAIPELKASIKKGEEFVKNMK

BHK-21 cells = format: cell-based
DENV2 sE2 [3] = target: T2, DENV2 sE2 (Dengue virus type 2, UniProt P14340); conditions: biolayer interferometry
DENV3 THD3 = test: Plaque reduction assay, DENV3; format: cell-based, dengue virus serotype 3; conditions: read-out: PRNT50 DENV3
DENV1 WP74 = test: Plaque reduction assay, DENV1; format: cell-based, dengue virus serotype 1; conditions: read-out: PRNT50 DENV1
[4] = Microsome stability in vitro; format: in vitro ADME; conditions: mouse microsomes in vitro
[5] = tested on: E-mediated fusion of DENV2 virions with liposomes; conditions: for Inhibition of E-mediated fusion: close to IC90
DENV4 TVP360 = test: Plaque reduction assay, DENV4; format: cell-based, dengue virus serotype 4; conditions: read-out: PRNT50 DENV4
[6] = Dynamic light scattering, particle size; format: physicochemical
ZIKV PF-251013–18 = test: Plaque reduction assay, ZIKV; conditions: read-out: PRNT50 ZIKV
DENV2 sE2 [7] = target: T2, DENV2 sE2; conditions: assay optimisation, Figure S1
DENV2 NGC [8] = test: Viral infectivity assay; format: cell-based, dengue virus serotype 2 New Guinea C; conditions: negative control compound
VSV-eGFP = format: cell-based, vesicular stomatitis virus
[9] = read-out: IC50 AmpC no TritonX, no Triton X-100
[10] = read-out: IC50 AmpC with TritonX, with 0.01% Triton X-100
[11] = read-out: IC50 MDH no TritonX, no Triton X-100
[12] = read-out: IC50 MDH with TritonX, with 0.01% Triton X-100

AmpC β-lactamase, sequence (P00811 20-377): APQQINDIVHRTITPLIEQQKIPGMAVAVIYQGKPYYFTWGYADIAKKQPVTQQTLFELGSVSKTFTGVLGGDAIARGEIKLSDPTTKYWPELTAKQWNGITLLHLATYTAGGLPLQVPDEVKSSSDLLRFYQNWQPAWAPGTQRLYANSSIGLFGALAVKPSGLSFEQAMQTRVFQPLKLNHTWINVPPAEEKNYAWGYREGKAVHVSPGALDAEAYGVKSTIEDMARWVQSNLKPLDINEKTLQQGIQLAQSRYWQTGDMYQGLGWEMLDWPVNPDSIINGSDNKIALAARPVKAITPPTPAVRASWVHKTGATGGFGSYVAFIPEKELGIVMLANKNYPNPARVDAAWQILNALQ

Row | Compound | IC50 (AmpC β-lactamase; [9]) [µM] | IC50 (AmpC β-lactamase; [10]) [µM] | IC50 (DENV2 NGC [1]; BHK-21 cells, scored) [µM] | IC50 [2, 11] [µM] | IC50 [2, 12] [µM] | CC50 (BHK-21 cells) [µM] | Kd (DENV2 sE2 [3]) [µM] | IC50 (DENV3 THD3; BHK-21 cells, scored) [µM] | IC50 (DENV1 WP74; BHK-21 cells, scored) [µM] | T1/2 (Microsome stability) [4] [min] | IC50 (DENV4 TVP360; BHK-21 cells, scored) [µM] | Particle size at 40 μM with Tween20 [6] [nm] | Particle size at 40 μM without Tween20 [6] [nm] | IC50 (ZIKV PF-251013–18; Vero cells, scored) [µM] | IC50 (DENV2 NGC [1]; bound stated) [µM] | IC50 (DENV3 THD3; bound stated) [µM] | IC50 (DENV1 WP74; bound stated) [µM] | IC50 (DENV4 TVP360; bound stated) [µM] | IC50 (ZIKV PF-251013–18; bound stated) [µM] | also measured
1 | COc1cc(C(=O)NS(=O)(=O)c2ccccc2C)ccc1Cc1cn(C)c2ccc(NC(=O)OC3CCCC3)cc12 [S1633] | 36.6 | > 100 | 1 to 10 | 48.2 | > 100 | 50 ± 3 | 5.2 ± 2.1 | > 10 | 1 to 10 | 37.7 | 1 to 10 | 9.2 | 823 | > 10 | – | – | – | – | – | Inhibition of E-mediated fusion ([5]; 10 μM): inhibit E-mediated fusion
2 | CN1CCN(c2ccc(Nc3cc(Oc4ccccc4)ncn3)cc2)CC1 [JW-068, N−[4-(4-Methylpiperazin-1-yl)phenyl]-6-phenoxypyrimidin-4-amine] | – | – | – | – | – | – | – | – | – | – | – | – | – | – | – | – | – | – | – | Competition with GNF2-biotin for binding to sE2 (DENV2 sE2 [7]): absence of competition; Inhibition of DENV2 infection (DENV2 NGC [8]): does not inhibit DENV2 infection
3 | CN(CC(=O)N(Cc1ccc(C2CCCCC2)cc1)c1ccc(C(=O)O)cc1)S(=O)(=O)c1c(F)c(F)c(F)c(F)c1F [S7337] | > 100 | > 100 | < 1 | 86.4 | > 100 | 13 ± 5 | 1.3 ± 0.5 | – | < 1 | 3.2 | < 1 | 8.2 | 144 | 1 to 10 | ≤ 1 | ≤ 10 | ≤ 1 | ≤ 1 | ≤ 10 | Inhibition of E-mediated fusion ([5]; 3 μM): inhibit E-mediated fusion
4 | Cc1cc(C(C#N)c2ccc(Cl)cc2)c(Cl)cc1NC(=O)c1cc(I)cc(I)c1O (stereo not drawn) [S4105] | 19.5 | > 100 | < 1 | 0.3 | > 100 | 50 ± 15 | 0.9 ± 0.3 | 1 to 10 | < 1 | > 120 | < 1 | 13.1 | 82 | < 1 | ≤ 1 | ≤ 10 | ≤ 1 | ≤ 1 | ≤ 1 | Inhibition % vs. VSV-eGFP (VSV-eGFP): 64% and 60%; Inhibition of viral fusion (protection of core from trypsin digestion) ([5]; at 5, 1, and 0.5 μM, Western blot): inhibit viral fusion in a concentration-dependent manner
